Tests used:
[1] = target: T1, Kappa-type opioid receptor (Homo sapiens, UniProt P41145); assay: Inhibition of kappa opioid receptor (unknown origin) assessed as effect on ERK2 phosphorylation
[2] = target: T1, Kappa-type opioid receptor; assay: Inhibition of kappa opioid receptor (unknown origin) assessed as effect on ERK1 phosphorylation relative to control
[3] = target: T1, Kappa-type opioid receptor; assay: Inhibition of kappa opioid receptor (unknown origin) assessed as effect on ERK1 phosphorylation
[4] = target: T1, Kappa-type opioid receptor; assay: Inhibition of kappa opioid receptor (unknown origin) assessed as increase in beta arrestin 2 recruitment relative to control
[5] = target: T1, Kappa-type opioid receptor; assay: Inhibition of kappa opioid receptor (unknown origin) assessed as effect on ERK2 phosphorylation relative to control
[6] = target: T1, Kappa-type opioid receptor; assay: Inhibition of kappa opioid receptor (unknown origin) assessed as increase in beta arrestin 2 recruitment
[7] = target: T1, Kappa-type opioid receptor; assay: Inhibition of kappa opioid receptor (unknown origin) by [35S]-GTPgammaS binding assay; type: functional

T1 sequence (P41145 whole entry): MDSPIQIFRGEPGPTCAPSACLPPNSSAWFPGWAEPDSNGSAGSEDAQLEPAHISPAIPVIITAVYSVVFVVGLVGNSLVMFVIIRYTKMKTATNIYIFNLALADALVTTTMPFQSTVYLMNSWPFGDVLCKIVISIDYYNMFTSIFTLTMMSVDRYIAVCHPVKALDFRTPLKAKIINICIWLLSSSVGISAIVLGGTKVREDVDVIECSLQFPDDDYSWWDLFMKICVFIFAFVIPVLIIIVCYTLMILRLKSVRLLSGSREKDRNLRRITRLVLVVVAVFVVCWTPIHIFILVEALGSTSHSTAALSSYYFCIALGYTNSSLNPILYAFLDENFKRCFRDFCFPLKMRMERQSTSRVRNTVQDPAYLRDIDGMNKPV

## Ic1ccc(CSc2nnc(-c3ccccn3)n2Cc2ccccn2)cc1
[1]
  EC50: 107 nM
[2]
  Emax: 109%
[3]
  EC50: 107 nM
[4]
  Emax: 101%
[5]
  Emax: 109%
[6]
  EC50: 10100 nM
[7]
  EC50: 75.5 nM
